The target in experiment [1] is T1, Histone deacetylase 8 (Schistosoma mansoni) (UniProt A5H660).
T1 sequence (whole entry): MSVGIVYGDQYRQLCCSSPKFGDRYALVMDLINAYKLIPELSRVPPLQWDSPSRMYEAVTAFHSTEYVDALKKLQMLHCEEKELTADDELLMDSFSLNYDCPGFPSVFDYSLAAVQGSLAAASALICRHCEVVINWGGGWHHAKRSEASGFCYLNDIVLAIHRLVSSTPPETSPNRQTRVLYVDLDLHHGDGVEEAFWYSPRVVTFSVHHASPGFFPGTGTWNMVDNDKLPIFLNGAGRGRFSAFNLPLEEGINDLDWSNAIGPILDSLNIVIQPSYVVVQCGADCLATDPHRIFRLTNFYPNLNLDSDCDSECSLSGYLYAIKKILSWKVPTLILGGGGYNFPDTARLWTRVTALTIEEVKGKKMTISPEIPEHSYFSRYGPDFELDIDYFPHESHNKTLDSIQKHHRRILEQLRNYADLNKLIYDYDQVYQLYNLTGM
Kind of experiment: Inhibition of Schistosoma mansoni KDAC8 at 30 uM using (FAM)-labeled peptide as substrate after 60 mins by microfluidic assay.

Another experiment deals with T2, Histone deacetylase 8 (Schistosoma mansoni, UniProt A5H660).
T2 sequence (A5H660 whole entry): T1 sequence (whole entry)
The experiment can be described thus: Inhibition of Schistosoma mansoni KDAC8 using (FAM)-labeled peptide as substrate after 60 mins by microfluidic assay. Conditions: read-out: IC50.

pIC50: −log10 of the molar value. Calls of active or inactive are those of the source. No cut-off for these calls is given here.

For the compound `COC(=O)CCCCN1C(=O)[C@H](CCC(=O)NC(c2ccccc2)(c2ccccc2)c2ccccc2)N=C(c2ccccc2)c2ccccc21`, the inhibition (as a rule, the drop in the measured response relative to a control, in per cent) in experiment [1] was 0%. Moreover, the pIC50 – broadly, −log10 of the IC50, conventionally taken in molar units – at Histone deacetylase 8 was less than 4.52.
The corresponding values for `CC(C)(C)OC(=O)NCCCC[C@@H]1N=C(c2ccccc2)c2ccccc2NC1=O` are 0% and less than 4.52.
In experiment [1], `O=C(O)CC[C@@H]1N=C(c2ccccc2)c2ccccc2N(CCCCC(=O)NO)C1=O` had an inhibition of 13.4%. For the same compound, the pIC50 at Histone deacetylase 8 was less than 4.52.
Compound `CC(C)(C)OC(=O)n1cc(C[C@@H]2N=C(c3ccccc3)c3ccccc3NC2=O)c2ccccc21` came in with an inhibition in experiment [1] of 11.9%. In addition, at Histone deacetylase 8, the pIC50 was less than 4.52.
The corresponding values for `O=C(C[C@@H]1N=C(c2ccccc2)c2ccccc2NC1=O)NO` are 0% and less than 4.52.
In experiment [1], `CC(C)(C)OC(=O)CC[C@@H]1N=C(c2ccccc2)c2ccccc2N(CCCCC(=O)NO)C1=O` returned an inhibition of 24.9%. Besides, the negative-log IC50 (pIC50) at Histone deacetylase 8 was less than 4.52.
In experiment [1], `COC(=O)CCCCN1C(=O)[C@H](CC(=O)OC(C)(C)C)N=C(c2ccccc2)c2ccccc21` yielded an inhibition of 0%. In addition, the pIC50 on Histone deacetylase 8 was less than 4.52.
`O=C(O)CCCCN1C(=O)[C@H](CC(=O)O)N=C(c2ccccc2)c2ccccc21` yielded an inhibition in experiment [1] of 0%. In addition, the pIC50 on Histone deacetylase 8 was less than 4.52.
On to `CC(C)(C)Oc1ccc(C[C@@H]2N=C(c3ccccc3)c3ccccc3NC2=O)cc1`, for which the inhibition in experiment [1] worked out at 0%. For the same compound, the pIC50 on Histone deacetylase 8 is less than 4.52.
In experiment [1], `COC(=O)CCCCN1C(=O)[C@H](CC(=O)NC(c2ccccc2)(c2ccccc2)c2ccccc2)N=C(c2ccccc2)c2ccccc21` returned an inhibition of 2.19%. Also, the pIC50 at Histone deacetylase 8 was less than 4.52.
On to `O=C(O)CCCCN1C(=O)[C@H](CCC(=O)O)N=C(c2ccccc2)c2ccccc21`, for which the inhibition in experiment [1] worked out at 0%. Further, on Histone deacetylase 8, the pIC50 was less than 4.52.
`CC(OCc1ccccc1)[C@@H]1N=C(c2ccccc2)c2ccccc2NC1=O` (single isomer, unassigned) displayed an inhibition in experiment [1] of 0%. For the same compound, the pIC50 on Histone deacetylase 8 was less than 4.52.
For `O=C(CCCCN1C(=O)CN=C(c2ccccc2)c2ccccc21)NO`, in that order: 39.7% and less than 4.52.
For `CC(C)[C@@H]1NC(=O)[C@@H]2CCCN2C(=O)[C@@H]2CCCN2C(=O)C[C@@H](C(=O)NCCCC(=O)NO)NC1=O`, in that order: 32% and less than 4.52.
Turning to `CSCC[C@@H]1N=C(c2ccccc2)c2ccccc2N(CCCCC(=O)NO)C1=O`, the inhibition in experiment [1] is 19.3%. At Histone deacetylase 8, the pIC50 was less than 4.52.
In experiment [1], `O=C(O)C[C@@H]1N=C(c2ccccc2)c2ccccc2NC1=O` displayed an inhibition of 0%. Moreover, the pIC50 at Histone deacetylase 8 is less than 4.52.
The corresponding values for `O=C(O)CCCCN1C(=O)[C@H](CC(=O)NC(c2ccccc2)(c2ccccc2)c2ccccc2)N=C(c2ccccc2)c2ccccc21` are 0% and less than 4.52.
For `CC(C)(C)Oc1ccc(C[C@@H]2N=C(c3ccccc3)c3ccccc3N(CCCCC(=O)O)C2=O)cc1`, in that order: 0% and less than 4.52.
The corresponding values for `CC(C)(C)OC(=O)C[C@H]1N=C(c2ccccc2)c2ccccc2NC1=O` are 0% and less than 4.52.
With `Nc1ccccc1NC(=O)c1ccc(CNC(=O)OCc2cccnc2)cc1` [ENTINOSTAT], the inhibition entry in experiment [1] was “inactive”. Also, on Histone deacetylase 8, the pIC50 was less than 4.52.
For `CC(C)(C)OC(=O)n1c(C[C@@H]2N=C(c3ccccc3)c3ccccc3N(CCCCC(=O)NO)C2=O)cc2ccccc21`, the inhibition in experiment [1] is 12.5%. Further, the pIC50 on Histone deacetylase 8 was less than 4.52.
Regarding `Cc1c(C)c(S(=O)(=O)NC(=N)NCCC[C@@H]2N=C(c3ccccc3)c3ccccc3N(CCCCC(=O)NO)C2=O)c(C)c2c1OC(C)(C)C2`, the inhibition in experiment [1] was found to be 0%. On Histone deacetylase 8, the pIC50 was less than 4.52.
On to `COC(=O)CCCCN1C(=O)[C@H](C)N=C(c2ccccc2)c2ccccc21`, for which, in experiment [1], the inhibition is 0%. Besides, the pIC50 at Histone deacetylase 8 is less than 4.52.
The corresponding values for `COC(=O)CCCCN1C(=O)CN=C(c2ccccc2)c2ccccc21` are 0% and less than 4.52.

(Values after ChEMBL document CHEMBL4014283, “Structural insights of SmKDAC8 inhibitors: Targeting Schistosoma epigenetics through a combined structure-based 3D QSAR, in vitro and synthesis strategy” (Bioorg Med Chem, 2017).)
